Test results from patent publication US12546785B2, “IL-17F and IL-17A-specific capture agents, compositions, and methods of using and making” (Regeneron Pharmaceuticals, Inc., priority 2017, dated 2026).
Numbered stars: 1 amine (or outer) side, 2 acyl side, 3 side chain; on linkers, the order of the positions; unused ones are H or OH. Bridge positions count the residues as written; N and C are the ends. Square brackets hold non-standard residues; d marks the D form. Triazole bridges read from a SMILES are 1,4-linked. Peptide text beside a SMILES is read from it. * marks the point of attachment. ξ: configuration not given here. Biotinyl(3aR,4R,6aS) = O=C1N[C@@H]2[C@@H](CS[C@@H]2CCCCC(=O)*)N1; Biotin = O=C1N[C@H]2[C@H](CS[C@H]2CCCCC(=O)*)N1; dLys(N3) = [N-]=[N+]=NCCCC[C@@H](N)C(=O)O; Lys(N3) = [N-]=[N+]=NCCCC[C@H](N)C(=O)O; Ethylenediamine = C(CN[*:2])N[*:1]; PEG5 = NCCOCCOCCOCCOCCOCCC(=O)O; ξY = NC(Cc1ccc(O)cc1)C(=O)O; AEEEA = NCCOCCOCCOCC(=O)O; ξR = N=C(N)NCCCC(N)C(=O)O; Pra = C#CC[C@H](N)C(=O)O; ξPra = C#CCC(N)C(=O)O; ξK = NCCCCC(N)C(=O)O; PEG1 = NCCOCCC(=O)O

What was measured:
[1] = molecular target: T1, recombinant human IL-17A protein (Homo sapiens, UniProt Q16552); test: ELISA affinity against IL-17A; format: binding
T1 construct: His tag
T1 sequence (Q16552 24-155): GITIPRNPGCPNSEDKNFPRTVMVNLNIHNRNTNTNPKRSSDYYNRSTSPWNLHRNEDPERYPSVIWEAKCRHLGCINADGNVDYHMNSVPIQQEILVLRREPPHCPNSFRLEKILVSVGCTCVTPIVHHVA
Protocol: The affinity of macrocycle LA3 (SEQ ID NO:44) against recombinant human IL-17A protein was determined by ELISA.

[2] = molecular target: Plasmodium falciparum Histidine Rich Protein-2 (Pf.HRP-2) (Plasmodium falciparum, UniProt P05227); test: biochemical; format: binding

CC(C)C[C@H]1NC(=O)[C@@H](CCCNC(=N)N)NC(=O)[C@@H](Cc2ccccc2)NC(=O)[C@@H](Cc2c[nH]cn2)NC(=O)[C@@H](CCCNC(=N)N)NC(=O)[C@@H](NC(=O)COCCOCCOCCNC(=O)CCCC[C@@H]2SC[C@@H]3NC(=O)N[C@@H]32)Cc2cn(nn2)CCCC[C@@H](C(N)=O)NC1=O [LA3] ({Biotin-AEEEA}-[Pra][dR][dH][dF][dR][dL][Lys(N3)]-NH2; triazole 1-7)
EC50 [1]: 4.5 ± 0.4 nM

CC(C)C[C@@H]1NC(=O)[C@H](CC(=O)O)NC(=O)[C@H](C(C)C)NC(=O)[C@H](CC(N)=O)NC(=O)[C@H](Cc2c[nH]c3ccccc23)NC(=O)CNC(=O)[C@](C)(NC(=O)[C@@H](N)CCCNC(=N)N)CCCCCC/C=C/CCC[C@@](C)(C(=O)N[C@@H](CCCCNC(=O)CCCC[C@@H]2SC[C@@H]3NC(=O)N[C@@H]32)C(=O)N[C@@H](CNC(=O)Cn2nncc2C[C@H](N)C(=O)N2CCC[C@@H]2C(=O)NCC(=O)N[C@H](CC(C)C)C(=O)N[C@H](CC(C)C)C(=O)N[C@H]2Cc3cn(nn3)CCCC[C@@H](C(N)=O)NC(=O)[C@H](CCCNC(=N)N)NC(=O)[C@H](Cc3ccc(O)cc3)NC(=O)[C@H](Cc3ccc(O)cc3)NC(=O)[C@H](CCCCN)NC(=O)[C@H](Cc3ccc(O)cc3)NC2=O)C(N)=O)NC1=O [cy(YKYYR)-linker-cy(GWNVDL)]
improvement over the better of the two ligand components ([2]; Pf.HRP-2): 100 fold

N=C(N)NCCCC1NC(=O)[C@@H](Cc2ccc(O)cc2)NC(=O)[C@@H](Cc2ccc(O)cc2)NC(=O)C(CCCCN)NC(=O)C(Cc2ccc(O)cc2)NC(=O)C(N)Cc2cn(nn2)CCCC[C@H](C(=O)NCCOCCC(=O)NC2Cc3cn(nn3)CCCC[C@H](C(=O)NCCOCCOCCOCCOCCOCCC(=O)NCCNC(=O)CCCC[C@H]3SC[C@H]4NC(=O)N[C@H]43)NC(=O)C(CCCNC(=N)N)NC(=O)[C@@H](Cc3ccc(O)cc3)NC(=O)[C@@H](Cc3ccc(O)cc3)NC(=O)C(CCCCN)NC(=O)C(Cc3ccc(O)cc3)NC2=O)NC1=O (stereo partly drawn) [linked biligand] (H-[ξPra][ξY][ξK][dY][dY][ξR][dLys(N3)][PEG1][ξPra][ξY][ξK][dY][dY][ξR][dLys(N3)][PEG5]-{Ethylenediamine-Biotinyl(3aR,4R,6aS)}; triazole 1-7, 9-15)
EC50 [2]: 20.8 ± 1.3 nM
